Laboratory results reported in US10723741B1, “DNA polymerase IIIC inhibitors and use thereof” (Acurx Pharmaceuticals, LLC, priority 2018, dated 2020).
≈ marks a conversion by molar mass, not a printed value.

How the values were obtained:
Assay type in all cases: cell-based
[1] = system: Streptococcus pneumoniae ATCC 49619; experiment: Broth microdilution MIC, S. pneumoniae ATCC 49619; conditions: ATCC49619, broth microdilution, 37° C., 20 hours, read-out: MIC S. pneumoniae ATCC 49619
How it was run: (§1)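 Two-fold dilutions from 64 to 0.0625 μg/ml final, 1% DMSO, were inoculated at ~5.0×10^5 cfu/ml in the strain's test medium and kept 20 h at 37 °C in ambient atmosphere. Colonies were grown on MHA, with S. pneumoniae on blood agar under 5% CO2.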

[2] = system: Enterococcus faecalis ATCC 29212; experiment: Broth microdilution MIC, E. faecalis ATCC 29212; conditions: ATCC29212, broth microdilution, 37° C., 20 hours, read-out: MIC E. faecalis ATCC 29212
How it was run: as §1

[3] = system: Staphylococcus aureus NRS384 (MRSA); experiment: Broth microdilution MIC, S. aureus NRS384 (MRSA); set-up: MIC NRS 384 (MRSA): unit not given here; conditions: broth microdilution, 37° C., 20 hours; for MIC: Staphylococcus aureus, read-out: MIC NRS 384 (MRSA)
How it was run: as §1

[4] = system: Staphylococcus aureus ATCC 29213 (MSSA); experiment: Broth microdilution MIC, S. aureus ATCC 29213 (MSSA); conditions: broth microdilution, 37° C., 20 hours, read-out: MIC S. aureus ATCC 29213 (MSSA)
How it was run: as §1

[5] = system: Bacillus subtilis ATCC 6633; experiment: Broth microdilution MIC, B. subtilis ATCC 6633; conditions: ATCC6633, broth microdilution, 37° C., 20 hours, read-out: MIC B. subtilis ATCC 6633
How it was run: as §1

[6] = system: Escherichia coli ATCC 25922; experiment: Broth microdilution MIC, E. coli ATCC 25922 (MHIIB w & w/o 4 mM EDTA); conditions: broth microdilution, 37° C., 20 hours; for MIC: Escherichia coli, ATCC25922, without EDTA, read-out: MIC E. coli ATCC 25922; for MIC E. coli ATCC 25922 + 4 mM EDTA: with 4 mM EDTA
How it was run: as §1

[7] = system: Enterococcus faecium ATCC 700221 (VRE); experiment: Broth microdilution MIC, E. faecium ATCC 700221 (VRE); set-up: MIC E. faecium ATCC 700221 (VRE): unit: ug/mL; conditions: broth microdilution, 37° C., 20 hours; for MIC: Enterococcus faecium, read-out: MIC E. faecium ATCC 700221 (VRE)
How it was run: as §1

Structure (SMILES) | MIC [1] | MIC [2] | MIC NRS 384 (MRSA) [3] | MIC [4] | MIC [5] | MIC [6] | MIC E. coli ATCC 25922 + 4 mM EDTA [6] | MIC E. faecium ATCC 700221 (VRE) [7] | MIC [3] | MIC [7]
Cl.O=c1[nH]c(NCc2ccc(Cl)c(Cl)c2)nc2cnn(CCc3ccccn3)c12 [Compound 111, 5-((3,4-Dichlorobenzyl)amino)-1-(2-(pyridin-2-yl)ethyl)-1H-pyrazolo[4,3-d]pyrimidin-7(6H)-one hydrochloride] | 4 µg/mL | 8 µg/mL | 2/2 | 4 µg/mL | 1 µg/mL | > 64 µg/mL | >64 µg/mL | 2/2 |  | 
Cl.O=c1[nH]c(NCc2ccc(Cl)c(Cl)c2)nc2cnn(Cc3cnccn3)c12 [Compound 112, 5-((3,4-Dichlorobenzyl)amino)-1-(pyrazin-2-ylmethyl)-1H-pyrazolo[4,3-d]pyrimidin-7(6H)-one hydrochloride] | 4 µg/mL | 8 µg/mL | 4/4 | 4 µg/mL | 1 µg/mL | > 64 µg/mL | >64 µg/mL | 2/2 |  | 
Cl.O=c1[nH]c(NCc2ccc(Cl)c(Cl)c2)nc2cnn(Cc3cccnc3)c12 [Compound 113, 5-[(3,4-Dichlorophenyl)methylamino]-1-(3-pyridylmethyl)-6H-pyrazolo[4,3-d]pyrimidin-7-one] | 8 µg/mL | 8 µg/mL | 4/4 | 4 µg/mL | 1 µg/mL | > 64 µg/mL | >64 µg/mL | 2/2 |  | 
O=c1[nH]c(NCc2ccc(Cl)c(Cl)c2)nc2cnn(Cc3ncccn3)c12 [Compound 114, 5-((3,4-Dichlorobenzyl)amino)-1-(pyrimidin-2-ylmethyl)-1H-pyrazolo[4,3-d]pyrimidin-7(6H)-one] | 4 µg/mL (≈ 9.94 µM) | 16 µg/mL (≈ 39.8 µM) | 4/4 | 8 µg/mL (≈ 19.9 µM) | 2 µg/mL (≈ 4.97 µM) | > 64 µg/mL | 32 µg/mL | 4/4 |  | 
O=c1[nH]c(NCc2ccc(Cl)c(Cl)c2)nc2cnn(CCOCCOCCO)c12 [Compound 115, 5-((3,4-Dichlorobenzyl)amino)-1-(2-(2-(2-hydroxyethoxy)ethoxy)ethyl)-1H-pyrazolo[4,3-d]pyrimidin-7(6H)-one] | 16 µg/mL (≈ 36.2 µM) | 32 µg/mL (≈ 72.3 µM) |  | 32 µg/mL (≈ 72.3 µM) | 8 µg/mL (≈ 18.1 µM) | > 64 µg/mL | >64 µg/mL |  | 32 µg/mL (≈ 72.3 µM) | 8 µg/mL (≈ 18.1 µM)
O=c1[nH]c(NCc2ccc(Cl)c(Cl)c2)nc2cnn(CCOCCOCCOCCO)c12 [Compound 116, 5-((3,4-Dichlorobenzyl)amino)-1-(2-(2-(2-(2-hydroxyethoxy)ethoxy)ethoxy)ethyl)-1H-pyrazolo[4,3-d]pyrimidin-7(6H)-one] | 8 µg/mL (≈ 16.4 µM) | 16 µg/mL (≈ 32.9 µM) |  | 64 µg/mL (≈ 132 µM) | 8 µg/mL (≈ 16.4 µM) | > 64 µg/mL | >64 µg/mL |  | 32 µg/mL (≈ 65.8 µM) | 8 µg/mL (≈ 16.4 µM)
O=c1[nH]c(NCc2ccc(Cl)c(Cl)c2)nc2cnn(CCc3ncccn3)c12 [Compound 117, 5-((3,4-Dichlorobenzyl)amino)-1-(2-(pyrimidin-2-yl)ethyl)-1H-pyrazolo[4,3-d]pyrimidin-7(6H)-one] | 4 µg/mL (≈ 9.61 µM) | 8 µg/mL (≈ 19.2 µM) |  | 8 µg/mL (≈ 19.2 µM) | 2 µg/mL (≈ 4.8 µM) | > 64 µg/mL | >64 µg/mL |  | 8 µg/mL (≈ 19.2 µM) | 4 µg/mL (≈ 9.61 µM)
O=c1[nH]c(NCc2ccc(Cl)c(Cl)c2)nc2cnn(CC3COC3)c12 [Compound 118, 5-((3,4-Dichlorobenzyl)amino)-1-(oxetan-3-ylmethyl)-1H-pyrazolo[4,3-d]pyrimidin-7(6H)-one] | 2 µg/mL (≈ 5.26 µM) | 2 µg/mL (≈ 5.26 µM) |  | 2 µg/mL (≈ 5.26 µM) | 0.5 µg/mL (≈ 1.31 µM) | > 64 µg/mL | >64 µg/mL |  | 2 µg/mL (≈ 5.26 µM) | 1 µg/mL (≈ 2.63 µM)
O=c1[nH]c(NCc2ccc(Cl)c(Cl)c2)nc2cnn(C3CCOC3)c12 (centres unmarked) [Compound 119, 5-((3,4-Dichlorobenzyl)amino)-1-(tetrahydrofuran-3-yl)-1H-pyrazolo[4,3-d]pyrimidin-7(6H)-one] | 4 µg/mL (≈ 10.5 µM) | 4 µg/mL (≈ 10.5 µM) |  | 2 µg/mL (≈ 5.26 µM) | 1 µg/mL (≈ 2.63 µM) | > 64 µg/mL | >64 µg/mL |  | 4 µg/mL (≈ 10.5 µM) | 2 µg/mL (≈ 5.26 µM)
O=c1[nH]c(NCc2ccc(Cl)c(Cl)c2)nc2cnn(CC3CCOC3)c12 (centres unmarked) [Compound 120, 5-((3,4-Dichlorobenzyl)amino)-1-((tetrahydrofuran-3-yl)methyl)-1H-pyrazolo[4,3-d]pyrimidin-7(6H)-one] | 4 µg/mL (≈ 10.1 µM) | 4 µg/mL (≈ 10.1 µM) |  | 2 µg/mL (≈ 5.07 µM) | 1 µg/mL (≈ 2.54 µM) | > 64 µg/mL | >64 µg/mL |  | 2 µg/mL (≈ 5.07 µM) | 2 µg/mL (≈ 5.07 µM)
O=c1[nH]c(NCc2ccc(Cl)c(Cl)c2)nc2cnn(C3CCOCC3)c12 [Compound 121, 5-((3,4-Dichlorobenzyl)amino)-1-(tetrahydro-2H-pyran-4-yl)-1H-pyrazolo[4,3-d]pyrimidin-7(6H)-one] | 4 µg/mL (≈ 10.1 µM) | 4 µg/mL (≈ 10.1 µM) |  | 4 µg/mL (≈ 10.1 µM) | 0.5 µg/mL (≈ 1.27 µM) | > 64 µg/mL | >64 µg/mL |  | 2 µg/mL (≈ 5.07 µM) | 2 µg/mL (≈ 5.07 µM)
O=c1[nH]c(NCc2ccc(Cl)c(Cl)c2)nc2cnn(CC3CCO3)c12 (centres unmarked) [Compound 122, 5-((3,4-Dichlorobenzyl)amino)-1-(oxetan-2-ylmethyl)-1H-pyrazolo[4,3-d]pyrimidin-7(6H)-one] | 4 µg/mL (≈ 10.5 µM) | 4 µg/mL (≈ 10.5 µM) |  | 2 µg/mL (≈ 5.26 µM) | 1 µg/mL (≈ 2.63 µM) | > 64 µg/mL | >64 µg/mL |  | 2 µg/mL (≈ 5.26 µM) | 2 µg/mL (≈ 5.26 µM)
O=c1[nH]c(NCc2ccc(Cl)c(Cl)c2)nc2cnn(CCCO)c12 [Compound 123, 5-((3,4-Dichlorobenzyl)amino)-1-(3-hydroxypropyl)-1H-pyrazolo[4,3-d]pyrimidin-7(6H)-one] | 2 µg/mL (≈ 5.43 µM) | 4 µg/mL (≈ 10.9 µM) |  | 2 µg/mL (≈ 5.43 µM) | 0.5 µg/mL (≈ 1.36 µM) | > 64 µg/mL | >64 µg/mL |  | 2 µg/mL (≈ 5.43 µM) | 1 µg/mL (≈ 2.72 µM)
Cl.O=c1[nH]c(NCc2ccc(Cl)c(Cl)c2)nc2cnn(CCc3cnccn3)c12 [Compound 124, 5-((3,4-Dichlorobenzyl)amino)-1-(2-(pyrazin-2-yl)ethyl)-1H-pyrazolo[4,3-d]pyrimidin-7(6H)-one hydrochloride] | 8 µg/mL | 4 µg/mL |  | 4 µg/mL | 1 µg/mL | > 64 µg/mL | >64 µg/mL |  | 2 µg/mL | 2 µg/mL
O=c1[nH]c(NCc2ccc(F)c(F)c2)nc2cnn(CC3CCO3)c12 (centres unmarked) [Compound 125, 5-((3,4-Difluorobenzyl)amino)-1-(oxetan-2-ylmethyl)-1H-pyrazolo[4,3-d]pyrimidin-7(6H)-one] | 8 µg/mL (≈ 23 µM) | 32 µg/mL (≈ 92.1 µM) |  | 32 µg/mL (≈ 92.1 µM) | 32 µg/mL (≈ 92.1 µM) | > 64 µg/mL | >64 µg/mL |  | 32 µg/mL (≈ 92.1 µM) | 32 µg/mL (≈ 92.1 µM)
O=c1[nH]c(NCc2ccc(Cl)c(Cl)c2)nc2cnn(Cc3ccccc3)c12 [Compound 127, 1-Benzyl-5-((3,4-dichlorobenzyl)amino)-1H-pyrazolo[4,3-d]pyrimidin-7(6H)-one] | > 64 µg/mL | > 64 µg/mL |  | > 64 µg/mL | 1 µg/mL (≈ 2.5 µM) | > 64 µg/mL | >64 µg/mL |  | > 64 µg/mL | 32 µg/mL (≈ 79.9 µM)
COCCn1cc2nc(NCc3ccc(Cl)c(Cl)c3)[nH]c(=O)c2n1 [Compound 128, 5-((3,4-Dichlorobenzyl)amino)-2-(2-methoxyethyl)-2H-pyrazolo[4,3-d]pyrimidin-7(6H)-one] | 16 µg/mL (≈ 43.5 µM) | 32 µg/mL (≈ 86.9 µM) |  | 32 µg/mL (≈ 86.9 µM) | 16 µg/mL (≈ 43.5 µM) | > 64 µg/mL | >64 µg/mL |  | 32 µg/mL (≈ 86.9 µM) | 32 µg/mL (≈ 86.9 µM)
O=c1[nH]c(NCc2ccc(Cl)c(Cl)c2)nc2cn(Cc3ccccc3)nc12 [Compound 129, 2-Benzyl-5-((3,4-dichlorobenzyl)amino)-2H-pyrazolo[4,3-d]pyrimidin-7(6H)-one] | > 64 µg/mL | > 64 µg/mL |  | > 64 µg/mL | > 64 µg/mL | > 64 µg/mL | >64 µg/mL |  | > 64 µg/mL | > 64 µg/mL
CC(C)n1ncc2nc(NCc3ccc(Cl)c(Cl)c3)[nH]c(=O)c21 [Compound 130, 5-((3,4-Dichlorobenzyl)amino)-1-isopropyl-1H-pyrazolo[4,3-d]pyrimidin-7(6H)-one] | 4 µg/mL (≈ 11.4 µM) | 4 µg/mL (≈ 11.4 µM) |  | 2 µg/mL (≈ 5.68 µM) | 1 µg/mL (≈ 2.84 µM) | > 64 µg/mL | 16 µg/mL |  | 2 µg/mL (≈ 5.68 µM) | 2 µg/mL (≈ 5.68 µM)
